We go through three molecules from US20220202739A1, “ENDOCANNABINOID MIMETIC AND ANTI-INFLAMMATORY COMPOUND CONTAINING COMPOSITIONS, METHODS OF PREPARATION AND USES THEREOF” (priority 2019, published 2022).

Where two headings read alike, the source gives them in different places.

The assay relates to PPARG. Nature of the assay: Gene expression custom microarray, human skin fibroblasts (Example 1): PPARG. As to conditions: for fold induction at 10 µM: Skin fibroblast, read-out: PPARG↑ gene expression, fold increase or decrease vs untreated cells. The format is cell-based. From the text:
Cell cultures: A human skin fibroblast cell culture (or cultures) was obtained through the Coriell Cell Repository from the National Institute on Aging Cell Repository (Camden, N.J.), or Promocell GmbH (Heidelberg, Germany). The initial culture was selected from the following cell lines: AG13066, AG11557, AG11796 or GM03651E. The cell lines were derived from donors as follows:
Experimental phase: When the appropriate quantity of cells had been grown, they were detached as described above, but at the final step were seeded into each well of one or more 6 well dishes. Each well received 2 ml of the cell suspension so they were seeded equally. The dishes were returned to the incubator until 85-95% confluency was reached.
It is at this stage that all wells were rinsed in PBS after aspirating the growth media. The compound(s) to be tested were previously mixed into a suitable solvent (e.g., DMSO or ethanol) that can be diluted to the desired concentration of test compound (10 μl) in the culture wells without exceeding maximum solvent concentrations and adversely effecting cell viability, and mixed with basal media. NOTE: Standard maximum levels of solvent are 0.1% for DMSO and 0.5% for ETOH.
Every 2 wells on the 6 well plate served as a biological replicate for the purposes of RNA isolation and genetic expression evaluations making each 6 well dish an n=3 for the test compound(s) contained in the media. Negative control plates (no test compound(s) and only basal media) were also generated. The plates were returned to the incubator for 24 hrs.
At the end of the 24 hr time period, the plates were removed from the incubator, the test media aspirated, and the cells rinsed with PBS. RNA isolation is performed using the BioRad Aurum Total RNA Mini Kit (Hercules, Calif.) per manufacturer's protocol; which is described, in brief, below: • Add 350 μl of lysis buffer to each well. Pipet multiple times to ensure thorough lysis. Add lysed cells to the collection tube. • Add 350 μl of 70% ETOH to the collection tube and mix thoroughly. • Pipet the generated lysate onto the spin column placed in a new 2 ml tube. Centrifuge for 30 sec between 8,000 and 10,000 g. • Place the spin column containing the now bound RNA, in a new 2 ml tube. Add 700 μl of low stringency wash solution to the spin column. Centrifuge for 30 sec between 8,000 and 10,000 g. Discard the flow through and replace spin column. • Add 80 μl of DNase I dilution to the spin column and incubate at room temperature for 15 minutes. • Add 700 μl of high stringency wash solution to the column and centrifuge for 30 sec between 8,000 and 10,000 g. Discard flow through. • Add 700 μl of low stringency wash solution to the column and centrifuge for 60 sec between 8,000 and 10,000 g. Discard flow through. • Centrifuge for 2 minutes to remove residual wash solution. • Transfer spin column to new 1.5 ml collection tube and add 80 μl of elution solution to the column. Allow 1 minute for saturation of the membrane and then centrifuge for 2 minutes to complete the RNA elution. • Quantify the quantity of RNA and store at −20 C° until use (no more than 1 month)
The genes tested were: • Cannabinoid receptor 1 (CB1(CNR1)) • Cannabinoid receptor 2 (CB2 (CNR2)) • Fatty acid amide hydrolase (FAAH) • Monoacylglycerol lipase (MGLL, i.e., MAGL) • Peroxisome proliferator-activated receptor gamma (PPARG) • Nuclear factor kappa-light-chain-enhancer of activated B cells (NFκβ) • Interleukin 1 Alpha (IL1alpha) • Cyclooxygenase 1 (PTGS1, i.e., COX1) • Transient receptor potential cation channel subfamily A member 1 (TRPA1) • Transient receptor potential cation channel subfamily V member 1 (TRPV1) • Transient receptor potential cation channel subfamily M member 8 (TRPM8) • Hemoglobin Subunit Beta (HBB) REFERENCE GENE • Ribosomal Protein L13a (RPL13A) REFERENCE GENE

Setting [1] is: human skin fibroblasts, 10 uM, 24 hr.

With `CCCCCCCCCCCCCCCC(=O)NCCO` [N-palmitoylethanolamide], the “PPARG↑ gene expression, fold increase or decrease vs untreated cells” value under setting [1] came to 2.6 fold.
With `CC(C)[C@]12O[C@H]1[C@@H]1O[C@]13[C@]1(O[C@H]1C[C@H]1C4=C(CC[C@@]13C)C(=O)OC4)[C@@H]2O` [Triptolide], the fold induction at 10 µM under setting [1] worked out at 1.1.
Take `C=C(C)[C@@H]1CCC(C)=C[C@H]1c1c(O)cc(CCCCC)cc1O` [CBD, cannabidiol, reference compound]: the fold induction at 10 µM (Homo sapiens, 24 h) is 8.1.
